In PubChem BioAssay (NCI):
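96-well plates; 48 h exposure; 5 concentrations. Endpoints by linear interpolation between flanking doses. Not reached: highest tested concentration assigned. GI50 = concentration required for 50% inhibition of growth. The concentration for full growth arrest is given as TGI.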

Tests used:
Assay in all cases: NCI-60 cell line screen, 48 h
[1] = test system: SNB-75 CNS
[2] = test system: HOP-92 NSCLC
[3] = test system: HL-60(TB) leukemia
[4] = test system: M14 melanoma
[5] = test system: A498 renal
[6] = test system: SK-OV-3 ovarian
[7] = test system: RPMI-8226 leukemia
[8] = test system: EKVX NSCLC
[9] = test system: SNB-19 CNS
[10] = test system: ACHN renal

Compound | GI50 [1] [µM] | TGI [1] [µM] | GI50 [2] [µM] | TGI [2] [µM] | GI50 [3] [µM] | TGI [3] [µM] | GI50 [4] [µM] | TGI [4] [µM] | GI50 [5] [µM] | TGI [5] [µM] | GI50 [6] [µM] | TGI [6] [µM] | GI50 [7] [µM] | TGI [7] [µM] | GI50 [8] [µM] | TGI [8] [µM] | GI50 [9] [µM] | TGI [9] [µM] | GI50 [10] [µM] | TGI [10] [µM]
CC(C)(C)n1cc(-c2ccnc(NCCNS(=O)(=O)c3ccc(Br)cc3)c2)c(-c2cccc(O)c2)n1 | 1.36 | 3.78 | 1.51 | 3.86 | 0.581 | 2.88 | 1.77 | 3.4 | 1.37 | 3.19 | 2.29 | 6.1 | 1.6 | 5 | 2.27 | 6.88 | 2.29 | 5.67 | 2.1 | 4.39
C/C(=N\NS(=O)(=O)c1ccc(C)cc1)c1ccc[n+]([O-])n1 |  | > 100 |  | > 100 |  | 91 |  | > 100 |  | > 100 |  | > 100 |  | > 100 |  | > 100 |  | > 100 |  | > 100
CC(C)OP(=O)(CP(=O)(OC(C)C)OC(C)C)OC(C)C.[CH3][Sn]([Br])([Br])[Br] | > 100 | > 100 | > 100 | > 100 | > 100 | > 100 |  |  | > 100 | > 100 | > 100 | > 100 | > 100 | > 100 | > 100 | > 100 | > 100 | > 100 | > 100 | > 100
Cc1c(C(C)C)cc(OCCO)cc1C(C)C |  | > 100 |  | 57 |  | 56.9 |  | > 100 |  | 96.6 |  | > 100 |  | 74.3 |  | 70.9 |  | > 100 |  | > 100
c1ccc(SCCCC(Sc2ccccc2)Sc2ccccc2)cc1 |  | > 100 |  | > 100 |  | > 100 |  | > 100 |  | > 100 |  | > 100 |  | > 100 |  | > 100 |  | > 100 |  | > 100
COc1cc2c3c(c1OC)-c1ccccc1C(C(OC(C)=O)c1ccccc1)C3N(C)CC2 (configuration not stated) |  | > 100 |  | > 100 |  | > 100 |  | > 100 |  | > 100 |  | > 100 |  | 80.7 |  | > 100 |  | > 100 |  | > 100
CC1=CC2=C(C)C3(CC3)[C@@](C)(O)C(=O)C2=C1 |  | 0.425 |  | 0.692 |  | 0.587 |  | 0.393 |  | 0.505 |  | 0.799 |  | > 1 |  | 0.992 |  | 0.545 |  | 0.379
COC(=O)[C@H](Cc1ccccc1)NC(=O)c1csc([C@@H](C[C@H](C(C)C)N(C)C(=O)[C@@H](NC(=O)[C@H]2CCCCN2C)C2CC2)OC(C)=O)n1 | 0.0257 | > 25 | 0.137 | 4.18 | 0.0137 | 0.193 | 0.0328 |  | 0.0693 | 1.67 | 0.121 | > 25 | 0.019 | > 25 | 0.119 | > 25 |  | > 25 | 0.15 | > 25
Nc1ncnc2occ(-c3ccc(NC(=O)Nc4cc(C(F)(F)F)cc(C(F)(F)F)c4)cc3)c12 | 1.42 | 4.88 | 0.977 | 4.42 | 4.13 | 12.9 | 3.09 | 6.4 | 0.144 | 1.62 | 3.37 | 6.67 | 3.68 | 16.4 | 3.16 | 8.07 | 4.1 | 9.54 | 2.94 | 12.6
CC[C@]12C=CCN3CC[C@]4(C(=C(C(=O)OC)C1)Nc1cc(O)ccc14)[C@@H]32 | 7.38 | 40.2 | 11.6 | 26.1 | 25.8 | 72.5 | 13.9 | 34.3 | 18.1 | 36.5 |  |  | 26.2 | 79.8 | 24.6 | > 100 | 18 | 44.2 | 18.5 | 41.4
O=C1c2cccnc2C(=O)c2c1c(C(=O)OCCCN1CCOCC1)c1ccccn21 | < 0.01 | 0.015 | 0.151 | 0.929 | 0.0361 | 2.76 | < 0.01 | 0.0699 | 0.0295 | 2.09 |  |  | 0.0252 | 1.13 | 0.0758 | 1.75 | < 0.01 | 4.13 |  | 
CCOC(=O)CCC1(C(=O)OC)CCCC1=O (configuration not stated) |  | > 100 |  | > 100 |  | > 100 |  |  |  | > 100 |  | > 100 |  | > 100 |  | > 100 |  | > 100 |  | > 100
CC(=O)[CH-]C(=O)c1ccccc1.CC(=O)[CH-]C(=O)c1ccccc1.[O]=[U+2]=[O] | 23 | 98.7 | 39.9 | > 100 | 29.6 | 80.3 | 35.8 | > 100 | 28.7 | 96.9 | 68.5 | > 100 | 40.7 | > 100 | 32.8 | > 100 |  |  | 33.6 | > 100
